Consider one molecule from patent publication US7091238B1, “Thienylhydrazon with digitalis-like properties (positive inotropic effects)” (University of Maryland, priority 1999, dated 2006).

“Also recorded” adds a separate entry of the source.

The test system of experiment [1] is sarcoplasmic reticulum of cardiac muscle fibers. In words: Caffeine-induced contracture of saponin-treated left ventricular fibers (Ca2+ uptake/storage by sarcoplasmic reticulum). Also noted: species or system Wistar rats. The procedure:
FIG. 7. Bundles of left ventricular fibers were treated with saponin and exposed to 0.5 mM CaCl2 to enable maximal tension development (Po). The contracture initiated by caffeine (20 mM) was measured after treatment of the sarcoplasmic reticulum (SR) with a solution of pCa 6.6 in the absence or presence of LASSBio-294 (100 μM0 for 0.5, 1.0 and 5.0 min. N=6. Calibration: Vertical, 10 mm=20 mg load; Horizontal, 10 mm=40 sec.
FIG. 8. Contracture induced by caffeine in relation to loading of the sarcoplasmic reticulum with a solution of pCa 6.6.
FIG. 9. The contractual responses were obtained during exposure to 20 mM caffeine after loading of the sarcoplasmic reticulum with pCA 6.6 in the absence and the presence of LASSBio-294.
FIG. 11. Concentration-response relationship for contracture induced by caffeine in the presence of 100 μM LASSBio-294. *p<0.01.
b. Graphic representation of the tests in FIG. 7 showing the effect of LASSBio-294 on uptake of Ca^2+ by sarcoplasmic reticulum in isolated cardiac muscle with sarcolemma removed. FIG. 9 illustrates the effect of LASSBio-294 on tension in isolated cardiac muscle with sarcolemma removed was measured. Measurement of contraction induced by caffeine, as a function concentration of LASSBio-294 in bathing solution. FIG. 9 is a graphic representation of the effect of increasing concentrations of LASSBio-294 between 0 and 20 μM. […] FIG. 12 illustrates the effect of LASSBio-294 on sensitivity of cardiac fibers to calcium. Calcium levels can induce isometric twitch. […] FIG. 13 provides a graphic representation of data in FIG. 12. General Method
Bundles of left ventricular muscle (130 μm diameter and 1–2 mm in thickness) from Wistar rats were dissected out and mounted for measurement of isometric tension. The muscles were treated with saponin solution (0.5%) for 5 minutes to […] the permeability of the sarcolemma. The membranes of the SR were then […] with Triton X-100 (1% v/v) with the objective of investigating the effects of LASSBio-294 on the sensitivity of the contractile system Ca^2+. […] Caffeine is used to elicit contraction in muscle. Comparison of caffeine alone to caffeine in the presence of LASSBio-294 was measured.

For experiment [2], the system named is rat thoracic aorta. In words: Relaxation of noradrenaline-precontracted thoracic aortic rings. The source says: Aortic rings: Male wistar rats (300–350 g) were anaesthetized with ether and killed by cervical dislocation. The thoracic aorta was quickly removed, placed in physiological solution, cleaned of fat and connective tissue, and cut into 3-mm rings. In some experiments endothelium was mechanically removed by gently rubbing inverted rings on a cotton surface moistened with physiological solution. The rings were fixed in an organ bath chamber filled with physiological solution (composition (mM): NaCl 122, KCl 5, NaHCO3 15, glucose 11.5, MgCl2 1.25, CaCl2 1.25 and KH2PO4 1.25) aerated with O2/CO2, maintained at 37° C., and left to equilibrate for 60 min during which the physiological solution was changed twice. All experiments were carried out under an initial tension of 20 mN, and the developed active tension was measured isometrically using a Grass Transducer (FT03). Data were acquired and analyzed by Chart 3.4/s software (MacLab, USA). The contraction was induced by 1 μM Noradrenaline (NOR) and when it reached a plateau the relaxant drugs (or solvent—time-matched control) were added. The rings contracted with 1 μM NOR that relaxed 40–50% in response to 1 μM acetylcholine were considered with intact endothelium. Drugs: LASSBio-294 and ODQ were dissolved in 100% dimethyl sulphoxide (DMSO). Noradrenalin, 1-NAME, IBMX, methylene blue, acetylcholine and indomethacin were purchased from SIGMA (USA). All drugs but indomethacin were dissolved in water in the day of the experiment. Indomethacin was dissolved in 5% sodium carbonate. Statistics: Data are presented as mean ±sem. Statistical analysis was performed using the Primer software. Vasodilator responses are expressed in percentage of the maximal contraction induced by 1 μM NOR. Differences were considered significant at p<0.05 (Student's t test).

The subject of experiment [3] is isolated dog hearts. In words: Intraventricular and aortic pressure in isolated dog hearts under pre-load (Langendorff's method). As to conditions: compared to control or wash out. The source says: Predictive tests can also be performed on isolated hearts of animals. Testing intraventricular and arterial pressure in isolated dog hearts, under pre-load, is an animal model for human congestive heart disease, as is well known in the art. This is called Langendorff's method. It allows examination of therapeutic strategies to treat congestive heart disease. When dog hearts were so tested, LASSBio-294 treated hearts achieved a 50% increase in intraventricular and aortic pressure compared to control or wash out after treatment. […] These tests predict that the invention has utility as a medicament in the treatment of congestive heart failure (Curtis, M. J., (1998) Cardiovasc. Res. 39, 194–21, incorporated expressly by reference herein).

Turning to `O=C(NN=Cc1cccs1)c1ccc2c(c1)OCO2` [LASSBio-294, 3,4-methylenedioxybenzoyl-2-thienylhydrazone], in experiment [1] (100 μM, loading at pCa 6.6, 20 mM caffeine contracture), the “uptake of Ca^2+ by the sarcoplasmic reticulum” value was “increases uptake of Ca^2+”. In experiment [1] (20 mM caffeine, concentrations between 0 and 20 μM), the “response to caffeine as a function of compound concentration” value is “increases until 10 μM”. Besides, the “contraction (isometric tension) elicited by caffeine” value in experiment [1] (caffeine 0.05 to 10 mM, 100 μM compound vs control) is recorded as “increased over control at all concentrations”. Besides, in experiment [1] (cardiac muscle fibers), the “storage of Ca^2+ by the sarcoplasmic reticulum” value is “increases the storage of Ca^2+”. For the same molecule, the “vasodilator activity (conclusion)” value in experiment [2] is recorded as “has vasodilator activity”. Further, the “relaxation of aortic rings with intact endothelium” value in experiment [2] (1 μM noradrenaline precontraction, 100 μM) is “relaxed noradrenaline-precontracted aortic rings; also recorded: relaxed intact aortic rings in a concentration-dependent manner”. Also, the “relaxation after addition of methylene blue” value in experiment [2] (30 μM methylene blue added after compound 100 μM) is recorded as “fully reversed”. In addition, the “relaxation after pre-treatment with methylene blue” value in experiment [2] (30 μM methylene blue added before compound) is listed as “not able to induce relaxation; also recorded: prevented; also recorded: abolishes”. For the same molecule, the “relaxation after 1-NAME treatment” value in experiment [2] (1-NAME 100 μM during 30 min) is given as “no difference in the relaxation”. Further, in experiment [2] (ODQ 10 μM, compound 100 μM, preliminary assays), the “vasorelaxation in presence of ODQ” value is “prevented”. In experiment [2] (endothelium removed), the “relaxation in endothelium-denuded aorta” value is listed as “abolished”. For the same molecule, the “relaxation after 1-NAME plus indomethacin” value in experiment [2] (inhibition of both NOS and cycloxigenase pathways) is listed as “same level of relaxation observed in the presence of only 1-NAME; also recorded: the same as observed in the presence of 1-NAME alone”. For the same molecule, in experiment [2] (intact rings, 1 μM noradrenaline), the “relaxation compared with acetylcholine and IBMX” value is “more slowly; also recorded: less pronounced”. The “increase in intraventricular and aortic pressure” value in experiment [3] came out at 50%.
